{"source": "patent US20240148757A1", "about": "“USE OF DIHYDROOROTATE DEHYDROGENASE (DHODH) INHIBITORS TO TARGET FERROPTOSIS IN CANCER THERAPY” (BOARD OF REGENTS, THE UNIVERSITY OF TEXAS SYSTEM, priority 2021, published 2024)", "key": {"GPX4^low NCI-H226 cells": {"test_system": "GPX4^low NCI-H226 cells", "experiment": "Cell viability / cell death (ferroptosis) in NCI-H226 cells", "assay_type": "cell-based, human", "conditions": "BQR; pretreatment Lip-1 or ZVF 10 μM, 24 hours", "procedure": "(§1) Viable cells were measured using Cell Counting Kit-8 (CCK-8, Dojindo) as previously described (Koppula, P., Zhang, Y., Shi, J., Li, W. & Gan, B, J Biol Chem 292, 14240-14249 (2017); Liu, X. & Gan, B, Cell Cycle 15, 3471-3481 (2016)). Briefly, cells were seeded onto 96-well plates at a density of 2×10^4 per well. The next day, cells were treated with GPX4 or DHODH inhibitors for 4 hours. Subsequently, cells exposed to 10 μl CCK-8 reagent (100 μl medium per well) for 1 hour at 37° C., 5% CO2 in an incubator. The absorbance at a wavelength of 450 nm was determined using a FLUOstar Omega microplate reader (BMG Labtech).\n(§2) Cell death was measured by propidium iodide (Roche) staining using a flow cytometer, as previously described (Dai, F., et al., Proc Natl Acad Sci USA 114, 3192-3197 (2017); Zhang, Y., et al., Cancer Res 80, 2243-2256 (2020)). For propidium iodide-staining, cells were seeded at a density of 50% confluence into 12-well plates. The next day, cells were treated with different reagents. To measure cell death, the cells were collected (including floating dead cells), stained with 5 μg/ml propidium iodide and the percentage of the propidium iodide-positive dead cell population was analyzed using the flow cytometer BD Accuri C6 (BD Biosciences) and an FL2 detector. A minimum of 10,000 single cells were analyzed per well and all experiments were carried out at least in triplicate."}, "DHODH KO HT-1080 cells [1]": {"test_system": "DHODH KO HT-1080 cells", "experiment": "Cell viability / cell death (ferroptosis) in DHODH KO HT-1080 cells", "assay_type": "cell-based, human", "conditions": "DHODH KO; pretreatment 10 μM, 24 hours", "procedure": "Knockout of DHODH, ACSL4 and COQ2 in human cell lines was performed using single guide RNAs (sgRNAs) and doxycycline (DOX)-inducible CRISPR-Cas9 expression system as described in our recent publication (Lee, H., et al., Nature cell biology 22, 225-234 (2020)). sgRNAs were cloned into the lentiviral lentiGuide vector. LentiGuide clones were transfected into HEK293T cells with psPAX2 packaging plasmid and pMD2.G expressing plasmid. Cells were infected with lentivirus with 0.8 μg/ml polybrene, selected with puromycin (1 μg/ml, InvivoGen), blasticidin (2 μg/ml, InvivoGen) or hygromycin B (2 μg/ml, InvivoGen) for 3 days and then single cells were sorted into 96-well plates. Single cells were maintained in DMEM with 10% (v/v) FBS and 1% (v/v) penicillin/streptomycin at 37° C. in an incubator with 20% O2 and 5% CO2 for 3-4 weeks and each colony was verified by western blot to confirm the target gene deletion. To generate cell lines with DOX-inducible CRISPR-Cas9-mediated gene deletion, cells were infected with lentivirus, selected with puromycin (1 μg/ml, InvivoGen), blasticidin (2 μg/ml, InvivoGen) or hygromycin B (2 μg/ml, InvivoGen) for 2 days and then single cells were sorted into 96-well plates. Once cell lines were established, 1 μg/ml of DOX (Sigma-Aldrich) was added to the media to induce target gene deletion for 48 hours after selection; then cells were cultured in DOX-free media for subsequent analyses.\nas §1, §2"}, "DHODH KO HT-1080 cells [2]": {"test_system": "DHODH KO HT-1080 cells", "experiment": "Mitochondrial lipid peroxidation (mito-BODIPY) in DHODH KO HT-1080 cells", "assay_type": "cell-based, human", "conditions": "pretreatment 10 μM, 24 hours"}, "HT-1080 xenograft tumors": {"test_system": "HT-1080 xenograft tumors", "experiment": "HT-1080 cell line-derived xenograft model", "assay_type": "in vivo, athymic nude mice", "conditions": "liproxstatin-1 10 mg/kg intraperitoneally daily", "procedure": "(§3) Fresh tumor tissues were fixed in 10% neutral buffered formalin overnight, washed once with PBS, and stored in 70% ethanol at 4° C. The tissues were dehydrated and embedded in paraffin by the Research Histology Core Laboratory (MD Anderson Cancer Center) according to standard protocols. Embedded tissues were sectioned at a thickness of 5 μm for H&E or immunohistochemistry (IHC) analysis. IHC analysis was performed as previously described (Gan, B., et al., Cancer Cell 18, 472-484 (2010); Gan, B., et al., J Cell Biol 175, 121-133 (2006)). Briefly, the primary antibodies, including ki-67 (1:500, 9027s, Cell Signaling Technology), cleaved-caspase 3 (1:500, 9661s, Cell Signaling Technology), or 4-HNE (1:400, ab46545, Abcam) were incubated overnight at 4° C. Staining was performed using the Vectastain elite ABC kit and DAB peroxidase substrate kit (Vector laboratories). Images were randomly taken from the […] (five images per tumor) at ×200 magnification using an Olympus BX43 microscope. All the xenograft experiments were performed in accordance with a protocol approved by the Institutional Animal Care and Use Committee and Institutional Review Board at The University of Texas MD Anderson Cancer Center. The study is compliant with all relevant ethical regulations regarding animal research. Female 4- to 6-week-old athymic nude mice (Foxn1^nu/Foxn1^nu) were purchased from the Experimental Radiation Oncology Breeding Core Facility at MD Anderson Cancer Center and housed in the Animal Care Facility at the Department of Veterinary Medicine and Surgery at MD Anderson. Cancer cell lines were suspended and counted in cold phosphate-buffered saline (PBS), and 5×10^6 HT-1080 or 1×10^7 NCI-H226 cells were injected into mice subcutaneously. When the tumor reached 50-100 mm^3, the mice were assigned randomly into different treatment groups. Brequinar or sulfasalazine was dissolved in dimethyl sulfoxide (DMSO) and diluted in PBS. Brequinar was intraperitoneally injected into mice at a dose of 30 mg/kg every three days. Sulfasalazine was intraperitoneally injected daily at a dose of 100 mg/kg. Liproxstatin-1 diluted in PBS was intraperitoneally injected daily at a dose of 10 mg/kg. The daily injection of brequinar, sulfasalazine, or liproxstatin-1 was continued until the endpoint as indicated in the corresponding figures. The tumor volume was measured every 3 days until the endpoint and calculated according to the equation volume=length×width^2×½."}, "GPX4-knockdown tumors": {"test_system": "GPX4-knockdown tumors", "experiment": "GPX4-knockdown HT-1080 xenograft model", "assay_type": "in vivo, athymic nude mice", "conditions": "liproxstatin-1 10 mg/kg intraperitoneally daily", "procedure": "as §3"}}, "data": [{"smiles": "Clc1cccc(CN=C2Nc3ccccc3NC23CCNCC3)c1", "note": "[liproxstatin-1]", "values": [{"measurement": "rescue of DHODH inhibition-induced cell death", "setting": "GPX4^low NCI-H226 cells", "result": "largely rescued"}, {"measurement": "protection against GPX4 inhibition (RSL3 or ML162)-induced ferroptosis", "setting": "DHODH KO HT-1080 cells [1]", "result": "rescued"}, {"measurement": "suppression of GPX4 inhibitor-induced mitochondrial lipid peroxidation", "setting": "DHODH KO HT-1080 cells [2]", "result": "could be suppressed"}, {"measurement": "restoration of tumor growth suppressed by brequinar and sulfasalazine", "setting": "HT-1080 xenograft tumors", "result": "largely restored"}, {"measurement": "restoration of tumor growth under brequinar treatment", "setting": "GPX4-knockdown tumors", "result": "largely restored the growth"}]}]}
